pKi: −log10 of the molar value.
What follows are compounds tested against human IRAK4 (Homo sapiens (Human), UniProt Q9NWZ3) (assay: IRAK4 kinase inhibition, Transcreener fluorescence polarization ADP assay). Details: recombinant full-length His6-IRAK4; 125 uM ATP; 90 min; Ki computed using ATP Km 642 uM.
Assay type: biochemical
Description: Compounds were assayed for inhibition of human IRAK4 and IRAK1 catalytic activity using recombinant enzyme produced from insect cells. Full-length IRAK4 protein, carrying an N-terminal His6-Tag, was obtained from Life Technologies (Carlsbad, Calif., USA). The IRAK1 construct was produced internally and was comprised of IRAK1 residues Arg194 to Ser712, preceded by an NH2-terminal His6 tag and the coding sequence for glutathione-S-transferase.

Chain of human IRAK4 (Q9NWZ3 whole entry): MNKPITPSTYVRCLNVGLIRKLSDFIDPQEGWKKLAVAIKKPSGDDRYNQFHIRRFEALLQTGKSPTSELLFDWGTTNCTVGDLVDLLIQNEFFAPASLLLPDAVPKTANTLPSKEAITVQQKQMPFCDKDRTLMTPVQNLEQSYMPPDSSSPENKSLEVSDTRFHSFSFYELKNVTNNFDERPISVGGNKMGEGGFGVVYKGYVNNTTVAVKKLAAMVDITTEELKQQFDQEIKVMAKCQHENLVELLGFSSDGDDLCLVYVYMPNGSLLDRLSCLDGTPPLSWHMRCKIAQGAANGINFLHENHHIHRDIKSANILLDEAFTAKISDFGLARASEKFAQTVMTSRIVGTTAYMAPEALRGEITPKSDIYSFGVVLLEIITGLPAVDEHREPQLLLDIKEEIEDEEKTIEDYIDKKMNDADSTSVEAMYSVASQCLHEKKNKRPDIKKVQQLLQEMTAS

Row | Structure (SMILES) | pKi
1 | CC1(C)Cc2cc(NC(=O)c3cnn4cccnc34)c(N3CCC4(CC3)CNC4=O)cc2O1 [Example 111, N-[2,2-dimethyl-6-(3-oxo-2,7-diazaspiro[3.5]nonan-7-yl)-3H-benzofuran-5-yl]pyrazolo[1,5-a]pyrimidine-3-carboxamide] | 8.32
2 | CC1(C)Cc2cc(NC(=O)c3cnn4cccnc34)c(N3CC4C(C3)C4(F)F)cc2O1 (stereo not shown) [Example 112, N-(6-(6,6-difluoro-3-azabicyclo[3.1.0]hexan-3-yl)-2,2-dimethyl-2,3-dihydrobenzofuran-5-yl)pyrazolo[1,5-a]pyrimidine-3-carboxamide] | 7.11
3 | CC1(C)Cc2cc(NC(=O)c3cnn4cccnc34)c(-c3ccc(=O)[nH]c3)cc2O1 [Example 113, N-[2,2-Dimethyl-6-(6-oxo-1H-pyridin-3-yl)-3H-benzofuran-5-yl]pyrazolo[1,5-a]pyrimidine-3-carboxamide] | 6.49
4 | CC1(C)Cc2cc(NC(=O)c3cnn4cccnc34)c(N3CCC4(CC3)COC4)cc2O1 [Example 114, N-(2,2-Dimethyl-6-(2-oxa-7-azaspiro[3.5]nonan-7-yl)-2,3-dihydrobenzofuran-5-yl)pyrazolo[1,5-a]pyrimidine-3-carboxamide] | 7.77
5 | CC1(C)Cc2cc(NC(=O)c3cnn4cccnc34)c(N3CCC(O)C(F)C3)cc2O1 (stereo not shown) [Example 115, N-(6-(3-Fluoro-4-hydroxypiperidin-1-yl)-2,2-dimethyl-2,3-dihydrobenzofuran-5-yl)pyrazolo[1,5-a]pyrimidine-3-carboxamide] | 8.02
6 | CC1(C)Cc2cc(NC(=O)c3cnn4cccnc34)c(N3CCCNCC3)cc2O1 [Example 116, N-(6-(1,4-diazepan-1-yl)-2,2-dimethyl-2,3-dihydrobenzofuran-5-yl)pyrazolo[1,5-a]pyrimidine-3-carboxamide] | 7.74
7 | CC1(C)Cc2cc(NC(=O)c3cnn4cccnc34)c(N3CCCOCC3)cc2O1 [Example 117, N-(2,2-dimethyl-6-(1,4-oxazepan-4-yl)-2,3-dihydrobenzofuran-5-yl)pyrazolo[1,5-a]pyrimidine-3-carboxamide] | 7.77
8 | CC1(C)Cc2cc(NC(=O)c3cnn4cccnc34)c(N3CCOCC3)cc2S1(=O)=O [Example 118, N-[2,2-Dimethyl-6-(morpholin-4-yl)-1,1-dioxo-2,3-dihydro-benzothiophen-5-yl]pyrazolo[1,5-a]pyrimidine-3-carboxamide] | 7.85
9 | C[C@@]1(CO)Cc2cc(NC(=O)c3cnn4cccnc34)c(N3CCC(F)(F)CC3)cc2O1 [Example 121, (S)—N-(6-(4,4-Difluoropiperidin-1-yl)-2-(hydroxymethyl)-2-methyl-2,3-dihydrobenzofuran-5-yl)pyrazolo[1,5-a]pyrimidine-3-carboxamide] | 7.80
10 | C[C@]1(CO)Cc2cc(NC(=O)c3cnn4cccnc34)c(N3CCC(F)(F)CC3)cc2O1 [Example 122, (R)—N-(6-(4,4-difluoropiperidin-1-yl)-2-(hydroxymethyl)-2-methyl-2,3-dihydrobenzofuran-5-yl)pyrazolo[1,5-a]pyrimidine-3-carboxamide] | 8.22
11 | C[C@]1(CO)Cc2cc(NC(=O)c3cnn4cccnc34)c(N3CCC4(CCOC4)CC3)cc2O1 [Example 125, (R)—N-(2-(Hydroxymethyl)-2-methyl-6-(2-oxa-8-azaspiro[4.5]decan-8-yl)-2,3-dihydrobenzofuran-5-yl)pyrazolo[1,5-a]pyrimidine-3-carboxamide] | 8.30
12 | C[C@@]1(CO)Cc2cc(NC(=O)c3cnn4cccnc34)c(N3CCC4(CCOC4)CC3)cc2O1 [Example 126, (S)—N-(2-(hydroxymethyl)-2-methyl-6-(2-oxa-8-azaspiro[4.5]decan-8-yl)-2,3-dihydrobenzofuran-5-yl)pyrazolo[1,5-a]pyrimidine-3-carboxamide] | 8.24
13 | C[C@]1(CO)Cc2cc(NC(=O)c3cnn4cccnc34)c(N3CCC(CO)CC3)cc2O1 [Example 129, (R)—N-(2-(Hydroxymethyl)-6-(4-(hydroxymethyl)piperidin-1-yl)-2-methyl-2,3-dihydrobenzofuran-5-yl)pyrazolo[1,5-a]pyrimidine-3-carboxamide] | 8.49
